Here are results for 1 compound from US8361970B2, “Growth factor binding molecules” (University of South Florida, priority 2000, dated 2013).

For experiment [1], the system named is HRGβ-activation of Erk1/Erk2. Nature of the experiment: HRGβ activation of Erk1/Erk2 in SkBr3 breast carcinoma cells overexpressing ErbB2. In kind it is cell-based, human. Particulars: concentrations as high as 100 μM. The method, then:
In other experiments, starved NIH 3T3 cells (PDGF-AA, PDGF-BB, aFGF, bFGF), NIH 3T3 cells overexpressing EGFR. IGF-1R or Flk-1 and the human breast carcinoma SkBr3 that overexpresses ErbB2 (HRGβ) are pretreated with GFB-111 (100 μM) for 5 min before 10 min stimulation with the indicated growth factors at the concentrations shown above and aFGF (10 ng/ml), bFGF (50 ng/ml), IGF-1 (50 ng/ml) and HRGβ (10 ng/ml). Cell lysates are then immunoblotted with anti-phospho Erk1/Erk2 as described above.

Experiment [2] relates to PDGF-AA stimulated PDGF receptor phosphorylation and Erk1/Erk2 activation. The experiment in a line: PDGF-AA stimulation of PDGF receptor phosphorylation and Erk1/Erk2 activation in NIH 3T3 cells. In kind it is cell-based. Particulars: NIH 3T3, PDGF-AA 10 ng/ml. The method, then: (§1) Starved NIII 3T3 cells (PDGF-BB and PDGF-AA), NIH 3T3 cells overexpressing either EGFR (EGF) or Flk-1 (VEGF) are pre-treated with the indicated concentrations of GFB-111 for 5 minutes before 10 minutes of stimulation with PDGF-BB (10 ng/ml), PDGF-AA (10 ng/ml), EGF (100 ng/ml) and VEGF (50 ng/ml). Cell lysates are run on SDS-PAGE gels, then transferred to nitrocellulose and Western blotted with anti-phosphotyrosine (4G 10) or anti-phosphorylated Erk1/Erk2 (New England Biolabs).

Experiment [3] concerns IGF-1-stimulated DNA synthesis. Nature of the experiment: IGF-1-stimulated DNA synthesis ([3H]-thymidine incorporation) in NIH 3T3 overexpressing IGFR. The format is cell-based. Particulars: concentrations as high as 100 μM. The method, then: Starved NIH 3T3 or NIH 3T3 overexpressing IGFR are treated for 16 hours with indicated concentrations of GFB-111 and either 10 ng/ml PDGF or 50 ng/ml IGF-1, respectively, then labeled for 2 hr (NIH 3T3) or 4 hr (IGFR) with ^3H-thymidine. Cells are then washed in PBS, lysed in 0.1N NaOH and spotted onto glass fiber filters. DNA is precipitated with ice cold ethanol then ^3H-thymidine incorporation quantified by scintillation counting.
The selectivity of PDGF-induced cellular responses, is evaluated by the selectivity of GFB-111 to inhibit growth factor-stimulated DNA synthesis using a [^3H]-thymidine incorporation assay. […] In contrast GFB-111 is ineffective at inhibiting IGF-1-stimulated DNA synthesis at concentrations as high as 100 μM (FIG. 4).
For orientation: Dividing cells build labelled thymidine or BrdU into new DNA.

Experiment [4] deals with Erk1/Erk2 activation in U87MG tumors. The experiment in a line: Phosphorylated/activated Erk1/Erk2 in U87MG tumors in vivo. More on the design: species or system nude mice. Particulars: day 32, 100 and 200 mg per kg. The method, then: U87MG cells (human glioblastoma) are harvested, resuspended in PBS and injected s.c. into the right and left flank (10×10^6 cells per flank) of 8 week old female nude mice (Charles River, Wilmington, Mass.). When tumors reached about 100 mm^3, animals are dosed i.p. with 0.2 ml once daily. Control animals received a saline vehicle whereas treated animals are injected with GFB-111 (50, 100 or 200 mg/kg/day). The tumor volumes are determined by measuring the length (l) and the width (w) and calculating the volume (V=lw^2/2) as described previously. For detection of phosphorylated/activated Erk1/Erk2 in tumors in vivo, the tumors are extracted 20 min after the last GFB-111 injection on day 32, rinsed and the tissue homogenized in HEPES lysis buffer (30 mM Hepes, pH 7.5, 1% T-X-100, 10% glycerol, 10 mM NaCl, 5 mM MgCl2, 25 mM NaF, 1 mM EGTA, 2 mM Na3VO4, 10 μg/ml trypsin inhibitor, 25 μg/ml leupeptin, 10 μg/ml aprotinin, 2 mM PMSF). The lysates (50-100 μg) are electrophoresed on a 15% SDS-PAGE, transferred to nitrocellulose membranes and immunoblotted, with anti-phospho-p44/p42 MAPK (Thy202/Tyr204).

The subject of the next experiment is rat glioma C6. Nature of the experiment: Antitumor efficacy, C6 tumor in nude mice. The format is in vivo.
Experiment [5] concerns the target EGF (epidermal growth factor) (Homo sapiens, UniProt P01133). The experiment in a line: Binding to EGF by gel electrophoresis.
Experiment [6] has as its system angiogenesis in DaOY tumors. The experiment in a line: Angiogenesis: microvessel count in DaOY tumors. The format is in vivo, nude mice. The method, then:
On the indicated termination day of each nude mouse experiment described above, (see also Table 2), the tumors are extracted and half frozen at −70° C., and half is fixed in 10% neutral buffered formalin for 6 hrs. After fixation the tissue samples are processed into paraffin blocks. Four micrometer-thick tissue sections are obtained from the paraffin blocks and stained with hematoxylin and eosin (H&E) (Richard-Allan Scientific, Kalamazoo, Mich.) using standard histologic techniques. Tissue sections are also subjected to immunostaining for Factor VIII using the avidin biotin peroxidase complex technique (Vectastatin Elite ABC Kit, Vector, Burlingame, Calif.). Rabbit polyclonal FVIII antibody (Von Willebrand Factor, Dako Corporation, Carpinteria, Calif.) is used at 1:400 dilution, following microwave antigen retrieval (4 cycles of 5 minutes each on high in 0.1M citrate buffer).

The subject of experiment [7] is EGF-stimulated EGFR tyrosine phosphorylation and Erk1/Erk2 activation. The experiment in a line: EGF-stimulated EGFR tyrosine phosphorylation and Erk1/Erk2 activation in NIH 3T3 cells overexpressing EGFR. The format is cell-based. The conditions noted are these: GFB-111 at concentrations as high as 100 μM. The method, then:
as §1

Structures are written as SMILES. Where “and” joins values, the source holds several entries; their conditions need not be identical. Equal entries are not always repeated.

EGF (epidermal growth factor), sequence (P01133 971-1023 limits assumed, species assumed): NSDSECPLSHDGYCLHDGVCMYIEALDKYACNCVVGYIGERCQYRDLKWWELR

For `CCCCOc1c2cc(C(=O)Nc3cc4cc(c3)C(=O)NCC(=O)N[C@@H](CC(=O)O)C(=O)NCC(=O)N[C@@H](Cc3ccc(O)cc3)C(=O)NC4)cc1Cc1cc(C(=O)Nc3cc4cc(c3)C(=O)NCC(=O)N[C@@H](CC(=O)O)C(=O)NCC(=O)N[C@@H](Cc3ccc(O)cc3)C(=O)NC4)cc(c1OCCCC)Cc1cc(C(=O)Nc3cc4cc(c3)C(=O)NCC(=O)N[C@@H](CC(=O)O)C(=O)NCC(=O)N[C@@H](Cc3ccc(O)cc3)C(=O)NC4)cc(c1OCCCC)Cc1cc(C(=O)Nc3cc4cc(c3)C(=O)NCC(=O)N[C@@H](CC(=O)O)C(=O)NCC(=O)N[C@@H](Cc3ccc(O)cc3)C(=O)NC4)cc(c1OCCCC)C2` [GFB-111], in experiment [1], the “HRGβ-activation of Erk1/Erk2” value was “minimally affected”. Also, in experiment [2], the “PDGF-AA stimulation of PDGF receptor phosphorylation and Erk1/Erk2 activation” value is “blocked”. Further, the “Inhibition of IGF-1-stimulated DNA synthesis” value in experiment [3] was “ineffective”. Besides, in experiment [4], the “Erk1/Erk2 activation in the tumors” value was “blocked”. For the same compound, in the experiment on rat glioma C6 (C6, 50 mpk, day in parentheses in cell), the “% Tumor growth inhibition” value is 54% (15) and 64% (15) and 46% (18). Besides, the “Inhibition of C6 tumor growth in nude mice” value with rat glioma C6 (mouse, in vivo) is “effective”. The “Binding to EGF” value in experiment [5] is given as “does not bind”. Besides, in experiment [6] (DaOY tumor, 50 mpk), the “Microvessel count (Mean ± SD) 250X” value came out at 7.20 ± 2.52 and the “Microvessel count (Mean ± SD) 400X” value worked out at 4.80 ± 1.37. Besides, in experiment [6] (DaOY tumors), the “Inhibition of angiogenesis” value is listed as “no effect”. In addition, in experiment [7], the “Effect on EGF-stimulated EGFR tyrosine phosphorylation and Erk1/Erk2 activation” value is reported as “does not affect”.
